Patent US12465602B2, “Use of an opioid molecule for treating dry eye and eyes suffering from allergies” (H4 ORPHAN PHARMA, priority 2019, dated 2025)
Like-named read-outs stand apart in the source and are kept apart here.

Assays:
non-mutated CFTR = molecular target: T1, non-mutated CFTR (Homo sapiens, UniProt P13569); assay: Ussing chamber short-circuit current on lacrimal gland epithelial cells expressing non-mutated CFTR; format: cell-based
T1 construct: endogenous in cells; host or cells: human glandular (lacrimal gland) epithelial cells, polarised on Snapwell filters
T1 sequence (P13569 whole entry, change not shown): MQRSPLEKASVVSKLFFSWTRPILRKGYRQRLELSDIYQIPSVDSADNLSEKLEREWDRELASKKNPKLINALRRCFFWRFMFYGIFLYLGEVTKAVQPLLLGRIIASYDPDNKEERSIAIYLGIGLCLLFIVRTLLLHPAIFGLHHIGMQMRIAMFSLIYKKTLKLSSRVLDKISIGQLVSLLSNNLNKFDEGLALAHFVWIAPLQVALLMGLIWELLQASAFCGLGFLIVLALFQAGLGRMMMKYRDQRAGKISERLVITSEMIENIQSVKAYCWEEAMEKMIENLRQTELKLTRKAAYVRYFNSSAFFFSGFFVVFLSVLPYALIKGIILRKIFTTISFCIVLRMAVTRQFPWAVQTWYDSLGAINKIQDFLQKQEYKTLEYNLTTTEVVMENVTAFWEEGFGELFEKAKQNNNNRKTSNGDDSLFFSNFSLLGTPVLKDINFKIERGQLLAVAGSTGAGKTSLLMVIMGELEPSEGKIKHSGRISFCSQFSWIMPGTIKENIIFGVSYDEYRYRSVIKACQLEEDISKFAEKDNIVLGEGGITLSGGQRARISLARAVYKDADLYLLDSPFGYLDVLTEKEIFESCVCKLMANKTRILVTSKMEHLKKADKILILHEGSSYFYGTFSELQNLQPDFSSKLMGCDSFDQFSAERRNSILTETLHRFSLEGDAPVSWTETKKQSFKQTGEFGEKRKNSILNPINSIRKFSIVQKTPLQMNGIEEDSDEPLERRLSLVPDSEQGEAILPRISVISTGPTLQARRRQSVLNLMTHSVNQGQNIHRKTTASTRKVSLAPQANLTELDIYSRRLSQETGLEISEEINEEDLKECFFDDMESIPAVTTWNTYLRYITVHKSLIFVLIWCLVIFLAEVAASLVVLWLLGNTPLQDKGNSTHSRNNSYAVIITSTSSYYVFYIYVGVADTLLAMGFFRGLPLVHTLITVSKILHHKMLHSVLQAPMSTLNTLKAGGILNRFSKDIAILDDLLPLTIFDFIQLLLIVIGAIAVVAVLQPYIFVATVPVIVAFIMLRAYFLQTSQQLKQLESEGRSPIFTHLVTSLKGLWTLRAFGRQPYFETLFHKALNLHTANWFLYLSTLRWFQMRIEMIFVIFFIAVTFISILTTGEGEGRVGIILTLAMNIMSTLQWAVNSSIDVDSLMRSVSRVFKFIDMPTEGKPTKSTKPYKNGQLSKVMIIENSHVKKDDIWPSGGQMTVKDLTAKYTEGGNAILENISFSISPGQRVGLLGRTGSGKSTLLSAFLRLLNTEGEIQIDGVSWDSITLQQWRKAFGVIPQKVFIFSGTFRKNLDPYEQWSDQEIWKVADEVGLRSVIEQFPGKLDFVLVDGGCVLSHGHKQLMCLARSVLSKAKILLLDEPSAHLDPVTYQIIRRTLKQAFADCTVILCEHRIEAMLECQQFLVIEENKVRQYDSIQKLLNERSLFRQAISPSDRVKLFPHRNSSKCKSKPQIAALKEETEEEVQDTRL
Source text: To study this action on the modulation of CFTR, the inventors have used the Ussing chamber method, invented by the Danish Hans H. Ussing at the end of the 1950s. This technique allows studying ionic exchanges through an epithelium, as they allow maintaining the tissue of interest in survival for a few hours under controlled conditions of temperature and medium. The positioning of the tissue between two half-chambers allows defining an apical compartment (corresponding to the lumen of the organ) and a basolateral compartment (corresponding to the blood compartment) and studying the exchanges between these two compartments via the tissue.
This technique is commonly used and it is particularly well-suited for a pharmacological approach of ionic transports and to search for molecules of therapeutic interest in the context of ionic secretions from epithelial cells. It consists in measuring the transepithelial current (called short-circuit and denoted Ise). Ise is expressed in amperes relative to the unit surface area of the epithelium (Ise in μA/cm2). The cells are cultured on a porous filter for 10 to 15 days at the liquid-liquid then air-liquid interface in order to mimic conditions close to in vivo. The transepithelial resistance is regularly measured during the culture. The higher this resistance (several hundred ohms), the more the epithelial tissue is contiguous, polarised and therefore tight. At the Air (apical side)—Liquid (basolateral side) interface, the epithelial cells polarise and form a tight mat that can be studied with the Ussing chamber technique. We have used a system with 6 vats from Physiologie Instrument@ enabling 6 experiments in parallel.
The inventors have prepared a 100 μM stock solution in DMSO.

basophils = assay: Basophil activation test (Flow CAST kit), CD63 expression by flow cytometry after anti-FcεRI stimulation; format: cell-based, human; conditions: noscapine 10 μM, whole blood, FIG. 9
Source text: These two cells intervene in the IgE-dependent allergic reaction; they express the high-affinity IgE receptor. Nevertheless, the mediators released by these cells during this activation are different for some of them. Moreover, basophils and especially mast cells intervene in innate immunity. Thus, basophils and mast cells have many characteristics in common and more particularly, the secretion of IL4 and IL13 which are known to induce the stimulation of collagen synthesis and the proliferation of fibroblasts responsible for fibrosis. Fibrosis can affect the Meibomian glands in dry eye and allergic eye. […]
It is designed for the in vitro diagnosis of the expression of the CD63 marker as a surface marker of activated basophils. The test is carried out on whole blood; flow cytometry allows quantifying the expression of CD63 at the surface of activated basophils. […]
This granularity may be due to irregularities inside or at the surface of the cells or to the density of the organelles that compose it (acess.ens-lyon.fr). Afterwards, fluorescence markers allow better characterising the different cell subpopulations (these markers are coupled with the differentiation clusters). […] The latter has been analysed in order to observe the expected results in the absence of stimulation and therefore of degranulation. […]

[1] = cited from earlier work

| short-circuit current differential after addition of noscapine, apical side (non-mutated CFTR; 10 μM noscapine, non-mutated epithelial cells, apical side, switches from 16) | short-circuit current differential after addition of noscapine, second series (non-mutated CFTR; 10 μM noscapine, non-mutated lacrimal gland epithelial cells, printed apical side, switches from 6.5) | EC50 (non-mutated CFTR; apical pole, FIG. 2, read-out: EC50 activity for the apical pole) [µM] | EC50 (non-mutated CFTR; basal pole, FIG. 3, read-out: EC50 for the basal pole) [µM] | SMILES | effect of Inh172 on cellular potential (non-mutated CFTR; Inh172 10 μM, first series (apical side)) | effect of Inh172 on cellular potential, second series (non-mutated CFTR; Inh172 10 μM, lacrimal gland epithelial cells) | inhibition of basophil degranulation caused by anti-FcεRI antibody (CD63+ CCR3+) (basophils) | solubility in organic solvents ([1]; benzene and acetone) | solubility in water ([1]; water) |
| --- | --- | --- | --- | --- | --- | --- | --- | --- | --- |
| – | – | – | – | O=C(O)c1ccc(C=C2SC(=S)N(c3cccc(C(F)(F)F)c3)C2=O)cc1 [Inh172] | completely blocks the cellular potential | completely blocks the cellular potential | – | – | – |
| more than 20 μA/cm2 | more than 7.5 μA/cm2 | 3.42 | 4.87 | COc1ccc2c(c1OC)C(=O)O[C@@H]2[C@H]1c2c(cc3c(c2OC)OCO3)CCN1C [noscapine, (3S)-6,7-dimethoxy-3-[(5R)-4-methoxy-6-methyl-7,8-dihydro-5H-[1,3]dioxolo[4,5-g]isoquinolin-5-yl]-3H-2-benzofuran-1-one] | – | – | blocks the activation of basophil degranulation | soluble in benzene and acetone | Insoluble in water |
